From patent US5198427A, “Natural intense sweeteners” (Research Corporation Technologies, Inc., priority 1990, dated 1993)
Read-outs that look alike come from different tables or passages of the source.

What was measured:
[1] = Acute toxicity in mice, single oral dose; assay type: in vivo, male Swiss-Webster mice; conditions: for Average body weight of test animals, Day 0 / Average body weight of test animals, Day 1 / Average body weight of test animals, Day 3 / Average body weight of test animals, Day 7 / Average body weight of test animals, Day 14: 1 g/kg oral intubation; for Average body weight of test animals, Day 0: day 0 (prior to administration); for t (body weight, test vs control), Day 0 / t (body weight, test vs control), Day 1 / t (body weight, test vs control), Day 3 / t (body weight, test vs control), Day 7 / t (body weight, test vs control), Day 14: 1 g/kg oral, 0.95 confidence
Method: The sweet isolates, abrusosides A-D, are each tested for acute toxicity in mice. Experiments are carried out with male Swiss-Webster mice (6-8 weeks old), that are housed in temperature-controlled rooms with a 12-hr light/dark cycle, and allowed free access to water and food. After acclimatization for three days, groups of 10 animals receive a single 1 g/kg body weight dose of either abrusoside A, B, C, or D by oral intubation. Test materials are suspended in 1% aqueous sodium carboxymethylcellulose. A control group treated with only 1% sodium caroboxymethylcellulose is also included in the experiment. In all experiments, no incidence of mortality occurred for up to 14 days after dosing. Animals are examined for body weight variations on days 0 (prior to administration), 1, 3, 7, and 14. Body weight variations between treated and control groups are analyzed by one-way analysis of variance using an appropriate computer program. It may be seen from these tables that no significant differences in body weight variation occurred between each of the four test compounds and the controls, when assessed for a fourteen day period following compound administration.

[2] = tested on: Salmonella typhimurium strain TM677; assay type: cell-based; conditions: DMSO
Method: Salmonella typhimurium strain TM677, carrying the "R-factor" plasmid pKM101, is used for the assessment of mutagenic activity. Mutagenic assays are conducted on abrusosides A, B, C, and D, both in the absence and presence of a metabolic activating agent, obtained from a 9,000 × g supernatant fraction from the livers of […] rats. The following protocols are used in this procedure.
Male Sprague-Dawley rats (body weight 100-120 g) were housed in air-conditioned quarters, with a 12 hr/12 hr light-dark cycle, and are given food and water ad libitum. The rats (groups of 10) are given single intraperitoneal injections of Aroclor 1254 (400 mg/kg) in corn oil. Four days after the treatment with Aroclor 1254, the rats are sacrificed by decapitation. Their livers are immediately excised, rinsed several times with cold 0.14 M NaCl, minced, and homogenized with 3 volumes (v/w) of 50 mM Tris HCl, pH 5, containing 0.14 M KCl, using a glass homogenizing vessel and a motor-driven Teflon pestle. The homogenate is filtered through cheese-cloth, and centrifuged at 9,000 g for 20 minutes to yield an S-9 fraction. The isolation procedures described above are conducted at 0°-4° C., and the isolated S-9 fraction is stored in small aliquots in liquid nitrogen.
Duplicate 0.98-ml reaction mixtures containing 0.1 mg of NADP^+, 1.0 mg of glucose-6-phosphate, 0.8 units of glucose-6-phosphate dehydrogenase, 0.67 mg of MgCl2, the S-9 fraction, and approximately 7×10^6 bacteria in logarithmic phase, are prepared in minimal essential medium. When metabolic activation is not required, only bacteria and minimal essential medium are mixed.
After addition of each test substance dissolved in 20 ul of DMSO, the mixtures are slowly rotated at 37° C. for 2 hours. Each reaction mixture is then quenched by addition of 4 ml phosphate-buffered saline. The bacteria are recovered by centrifugation, resuspended, diluted as appropriate, and plated, in triplicate, in the presence or absence of 8-azaguanine. Plates are scored […] on plates containing 8-azaguanine divided by the average number of plates not containing azaguanine, after correcting for dilution factors. The latter value is used to define the percentage of bacteria surviving the treatment, relative to a control in which only an equivalent amount of solvent had been added.
The spontaneous mutant fraction for this assay is 7.4±5×10^-5 (n=145). A compound is said to cause significant mutation if the induced mutant fraction is greater than or equal to two times the spontaneous mutant fraction.

[3] = Sensory evaluation by human taste panel; conditions: for Sweetness relative to a 2% aqueous solution of sucrose: ammonium salts, in water, human taste panel; for Sweetness relative to 2% sucrose: three-person panel, dilute ammonium hydroxide solution diluted with water
Method: Abrusoside A (4 mg) is dissolved in 0.033N ammonium hydroxide solution (0.2 ml), to which is added 1.8 ml of water to yield the equivalent of a 0.2 % w/v solution of abrusoside A. Aliquots (0.2 ml) of this solution are diluted with 0.4, 0.8, 1.3, and 1.8 ml water, respectively. The diluted solutions is tasted sequentially, in order to judge the intensity of sweetness equivalent to that of a 2% w/v aqueous sucrose solution. Similar procedures are used in the sensory evaluation of […], expect that the concentrations of the ammonium hydroxide solutions used are 0.05N for abrusosides B and C, and 0.025N for abrusoside D. These sensory experiments are performed by a small panel consisting of three persons.

[4] = cited from earlier work
[5] = 2.5 mg/ml, activating system none
[6] = 5.0 mg/ml, activating system none

Compound | Average body weight of test animals, Day 0 [1] [g] | Average body weight of test animals, Day 1 [1] [g] | Average body weight of test animals, Day 3 [1] [g] | Average body weight of test animals, Day 7 [1] [g] | Average body weight of test animals, Day 14 [1] [g] | t (body weight, test vs control), Day 0 [1] | t (body weight, test vs control), Day 1 [1] | t (body weight, test vs control), Day 3 [1] | t (body weight, test vs control), Day 7 [1] | t (body weight, test vs control), Day 14 [1] | % Survival ([2]; 2.5 mg/ml, Aroclor S-9) [%] | Mutant Fraction ([2]; 2.5 mg/ml, Aroclor S-9) | % Survival [2, 5] [%] | Mutant Fraction [2, 5] | % Survival ([2]; 5.0 mg/ml, Aroclor S-9) [%] | Mutant Fraction ([2]; 5.0 mg/ml, Aroclor S-9) | % Survival [2, 6] [%] | Mutant Fraction [2, 6] | Sweetness relative to a 2% aqueous solution of sucrose [3] [x] | Sweetness relative to 2% sucrose [3] [times] | also measured
CC1=CC[C@@H]([C@@H](C)[C@H]2CC[C@@]3(C)[C@@H]4CC[C@H]5[C@](C)(C(=O)O)[C@@H](O[C@@H]6O[C@H](CO)[C@@H](O)[C@H](O)[C@H]6O)CC[C@@]56C[C@@]46CC[C@]23C)OC1=O [Abrusoside A] | 23.4 | 23.7 | 24.4 | 25.4 | 26.1 | 0.292 | 0.153 | 0.368 | 0.000 | 0.000 | 100 | 8.1 × 10^5 | 100 | 7.9 × 10^5 | 100 | 7.3 × 10^5 | 100 | 8.1 × 10^5 | 30 | 30 | –
COC(=O)[C@H]1O[C@@H](O[C@H]2[C@H](O[C@H]3CC[C@]45C[C@]46CC[C@]4(C)[C@@H]([C@H](C)[C@@H]7CC=C(C)C(=O)O7)CC[C@@]4(C)[C@@H]6CC[C@H]5[C@]3(C)C(=O)O)O[C@H](CO)[C@@H](O)[C@@H]2O)[C@H](O)[C@@H](O)[C@@H]1O [Abrusoside B] | 23.5 | 23.7 | 23.9 | 25.0 | 26.4 | 0.432 | 0.330 | 0.458 | 0.576 | 0.282 | 100 | 7.2 × 10^5 | 100 | 8.7 × 10^5 | 100 | 8.2 × 10^5 | 100 | 7.3 × 10^5 | 100 | 100 | –
CC1=CC[C@@H]([C@@H](C)[C@H]2CC[C@@]3(C)[C@@H]4CC[C@H]5[C@](C)(C(=O)O)[C@@H](O[C@@H]6O[C@H](CO)[C@@H](O)[C@H](O)[C@H]6O[C@@H]6O[C@H](CO)[C@@H](O)[C@H](O)[C@H]6O)CC[C@@]56C[C@@]46CC[C@]23C)OC1=O [Abrusoside C] | 23.4 | 23.8 | 24.3 | 25.3 | 26.9 | 0.282 | 0.371 | 0.302 | 0.129 | 0.930 | 100 | 7.7 × 10^5 | 100 | 8.1 × 10^5 | 100 | 6.7 × 10^5 | 100 | 7.6 × 10^5 | 50 | 50 | –
CC1(C)[C@@H](O[C@H]2O[C@H](C(=O)O)[C@@H](O)[C@H](O)[C@H]2O[C@@H]2O[C@H](C(=O)O)[C@@H](O)[C@H](O)[C@H]2O)CC[C@]2(C)[C@H]3C(=O)C=C4[C@@H]5C[C@@](C)(C(=O)O)CC[C@]5(C)CC[C@@]4(C)[C@]3(C)CC[C@@H]12 [Glycyrrhizin] | – | – | – | – | – | – | – | – | – | – | – | – | – | – | – | – | – | – | – | – | Retention of sodium, chlorine and water ([4]; humans): can cause abnormal retention of sodium, chlorine and water in humans; Adrenocorticomimetic activity ([4]; mimics the effects of the adrenal cortex): known adrenocorticomimetic activity
Abrusoside D | 24.1 | 24.4 | 24.9 | 25.7 | 27.0 | 1.199 | 1.140 | 0.991 | 0.383 | 0.812 | 100 | 11.8 × 10^5 | 100 | 16.7 × 10^5 | 100 | 11.0 × 10^5 | 100 | 15.3 × 10^5 | 75 | 75 | Duration of lingering sweetness ([3]; 0.04% w/v): about 30 minutes
